# Laboratory results published in US12377087B2, “Compounds for the treatment of cancer” (UNIVERSITY OF LOUISVILLE RESEARCH FOUNDATION, INC., priority 2015, dated 2025).
# Key:
# hT/LT/Ras cells = assay: viable cell count of hT/LT/Ras cells; format: cell-based, human; conditions: 48 hours
# Text: (§1) Cell lines and cell culture: H460, H1299, H441, H522 and A549 non-small cell lung cancer (NSCLC), MDA-MB-231 (breast), LNCaP (prostatic) and HCT116 (colon) adenocarcinoma and Lewis lung carcinoma (LLC) cell lines were obtained from ATCC and used within 6 months of acquisition, PFKFB4^7 ear pinna Fibroblasts isolated from TamCre/loxP/PFKFB4^−/− mice were immortalized as described previously (Chesney J et al. Fructose-2,6-bisphosphate synthesis by 6-phosphofructo-2-kinase/fructose-2,6-bisphosphatase 4 (PFKFB4) is required for the glycolytic response to hypoxia and tumor growth. Oncotarget 2014 Aug. 30; 5(16):6670-86). Normal bronchial epithelial cells (NHBE) were obtained from Lonza and NHBE cells expressing telomerase, SV40 large T antigen and activated Ras (hT/LT/Ras) were a gift from Dr. B. J. Rollins, Dana Farber Cancer Institute. All cell lines were tested and found negative for mycoplasma (PCR Mycoplasma Detection Kit, ABM). […]
# (§2) Cell Viability: Cells were incubated in 20% trypan blue (Sigma) for 5 minutes. Cells excluding trypan blue were counted using a standard hemocytometer (Hausser Scientific) to determine total numbers of viable cells. Data are expressed as mean±SD of three experiments.
# H441 = assay: viable cell count of H441 cells; format: cell-based; conditions: H441, 48 hours
# Method: as §2
# H460 cells [1] = assay: ATP measurements in H460 cells; format: cell-based, human; conditions: H460, 10 μM 5MPN, 6-72 hours
# Method: Cells were lysed and intracellular ATP determined as described previously. For example, cells were washed (while still adherent) with cold PBS 1×, lysed with Passive Lysis Buffer (1×; Molecular Probes, Invitrogen) added directly to the plates, and immediately harvested by scraping. The lysates were flash frozen (to −80° C.) and thawed (to 37° C.) once to accomplish complete lysis and then centrifuged (at 4° C.) for 30 seconds to clear the lysates. Intracellular ATP levels were determined using a bioluminescence assay (Molecular Probes), utilizing recombinant firefly luciferase and its substrate, D-luciferin. The luminescence was read in a TD-20/20 luminometer (Turner Designs) at 560 nm. The ATP values were calculated using an ATP standard curve. The protein concentrations of the lysates were estimated using the BCA assay (Pierce Biotechnology) and ATP was expressed as pmol/μg protein. All data are expressed as the mean±SD of three experiments. Statistical significance was assessed by the two-sample t test (independent variable).
# H1299 = assay: viable cell count of H1299 cells; format: cell-based; conditions: H1299, 48 hours
# Method: as §2
# H460 cells [2] = assay: Glycolysis assay (3H2O from 5-[3H]glucose) in H460 cells; format: cell-based, human; conditions: H460, 10 μM 5MPN, 6-72 hours
# Method: Cells growing in 6-well plates were incubated in 500 μl of complete medium containing 1 μCi of 5-[^3H]glucose per well for 60 min in 5% CO2 at 37° C. Media was collected, ^3H2O formed via glycolysis from the 5-[^3H]glucose measured and counts normalized as previously described. For example, the medium was then collected and centrifuged to pellet any suspended cells. To separate the ^3H2O formed via glycolysis from the 5-[^3H]glucose added to the medium, an evaporation technique in a sealed system was utilized. Briefly, 150 μl aliquots of medium were added to open tubes that were placed upright inside scintillation vials containing 1 ml of H2O. The scintillation vials were sealed, and the ^3H2O produced by glycolysis through enolase and released to the medium was allowed to equilibrate with the H2O in the outer vial for 48 h at 37° C. The amounts of ^3H2O that had diffused into the surrounding H2O was measured on a Tri-Carb 2910 liquid scintillation analyzer (Perkin Elmer) and compared with ^3H2O and 5-[^3H]glucose standards. Protein concentration was determined using the BCA assay and counts were normalized to protein concentration. All data are expressed as the mean±SD of three experiments. Statistical significance was assessed by the two-sample t test (independent variable).
# [3] = system: panel of 97 protein kinases; assay: KINOMEscan active-site dependent competition binding assay; conditions: 10 μM; data not shown
# Method: Kinase assays: The fructose-6-phosphate kinase activity of human recombinant PFKFB4 in the presence of DMSO±indicated 5MPN concentrations was assayed as previously described. The activity of 5MPN against 97 kinases was examined using a commercially available active-site dependent competition binding assay core service (KINOMEscanEDGE) that quantifies the capacity of lest agents to compete with an immobilized, active-site directed ligand using a DNA-tagged kinase and immobilized ligand and compound. For example, enzyme inhibition was studies using a ADP-Glo assay. […] ADP is converted into ATP, which is converted into light by a luciferase.
# MDA-MB-231 = assay: viable cell count of MDA-MB-231 cells; format: cell-based; conditions: MDA-MB-231, 48 hours
# Method: as §2
# A549 = assay: viable cell count of A549 cells; format: cell-based; conditions: A549, 48 hours
# Method: as §2
# NHBE cells = assay: viable cell count of normal human bronchial epithelial cells; format: cell-based; conditions: 48 hours
# Text: as §1, §2
# H522 = assay: viable cell count of H522 cells; format: cell-based; conditions: H522, 48 hours
# Method: as §2
# LNCaP = assay: viable cell count of LNCaP cells; format: cell-based; conditions: 48 hours
# Method: as §2
# LLC cells = assay: in vitro cell cycle analysis of LLC cells; format: cell-based; conditions: 10 μM 5MPN
# Method: Flow Cytometry: To measure apoptosis, cells were stained with annexin V and propidium iodide and examined as previously described. […] DMSO used as vehicle. For cell cycle experiments, cells were detached, washed with cold PBS and fixed in 70% ethanol (4° C. 30 minutes). The cells then were pelleted by centrifugation, resuspended in PBS containing PI and RNase A, incubated at 37° C. in the dark for 30 minutes and analyzed by flow cytometry (BD FACSCalibur). Data were analyzed using FlowJo software (TREE STAR Inc.). Results were calculated as the mean±SD of three experiments.
compound,measurement,setting,value
"COc1cccc2c(NCCCCCO[N+](=O)[O-])ccnc12 [5MPN, 5-[(8-methoxyquinolin-4-yl)amino]pentyl nitrate]","cell growth, live cells",hT/LT/Ras cells,suppressed similar to other transformed cells
same,"growth, viable cells",H441,dose-dependent reduction in growth
same,ATP,H460 cells [1],reduced
same,"growth, viable cells",H1299,dose-dependent reduction in growth
same,glycolysis,H460 cells [2],reduced
same,inhibition of a panel of 97 protein kinases,[3],not inhibited
same,"growth, viable cells",MDA-MB-231,dose-dependent reduction in growth
same,"growth, viable cells",A549,dose-dependent reduction in growth
same,"cell growth, live cells",NHBE cells,virtually unaffected
same,"growth, viable cells",H522,dose-dependent reduction in growth
same,"growth, viable cells",LNCaP,dose-dependent reduction in growth
same,cell cycle arrest in LLC cells in vitro,LLC cells,G1 arrest
